Experimental data: patent US6994954B2, “System for organ and tissue preservation and hypothermic blood substitution” (Organ Recovery Systems, Inc., priority 2000, dated 2006)

Key:
A10 smooth muscle cells = assay: Cryopreservation of A10 cells with DMSO in vehicle solution, Alamar Blue; assay type: cell-based; conditions: freezing and thawing
Method: (§1) The same system as that described above for cells in microtiter plates was used to evaluate a preferred embodiment of the exemplary High-K Intracellular-base solution as a new carrier solution for cryoprotective additives (CPA). Specifically, a phosphate-free formulation of the new High-K solution was prepared to avoid the known precipitation of divalent cation phosphates in the presence of the cryoprotectant DMSO at low temperatures. Cell survival was compared after freezing and thawing in the presence of a range of concentrations of DMSO prepared in either the new phosphate-free HK-cryoprotectant vehicle solution (HK-CV), or EuroCollins medium. EuroCollins is an organ preservation solution that has also been used in the field of cryobiology as a vehicle solution for cryoprotectants.
(§2) Cells were plated at 2×10^4 cells/well and after overnight incubation regular culture medium was replaced with the experimental CPA mixtures using the following protocol: Plates were cooled to −80° C. at a controlled rate (1° C./min) and stored overnight at −135° C. The plates were thawed using a two-step warming protocol and the CPA was diluted using mannitol as an osmotic buffer. Cell viability was assessed using the Alamar Blue assay of cellular metabolic activity at 37° C. FIGS. 15 and 16 show the comparative viability of two cell types after cryopreservation in the respective media. […]

[1] = test system: bovine corneal endothelial (BCE) cells; assay: Cryopreservation of BCE cells with DMSO in vehicle solution, Alamar Blue; assay type: cell-based; conditions: freezing and thawing
Method: as §1, §2

## C[S+](C)[O-] [DMSO, Dimethylsulfoxide]
A10 smooth muscle cells
  DMSO concentration giving optimum survival: 1 to 2 M
[1]
  DMSO concentration giving optimum survival: 1 to 2 M
